Ends that are not written are not given here.

The text below walks through data of patent US8088889B2, “Teneurin c-terminal associated peptides (TCAP) and uses thereof” (priority 2002, dated 2012).

What all share (format): cell-based, mouse
In assay [1] the test system is Gn11 cells. Description: cAMP accumulation in Gn11 immortalized neurons (Example 12). The conditions noted are these: 1 nM, FIG. 25A/B. As for the experimental part: Gn11 immortalized neurons were cultured as previously reported (Tellam et al., 1998) Direct cAMP measurements were performed with the nonacetylated version of a commercial kit (Assay Designs, Ann Arbor, Mich.). After starved by serum-free DMEM for 1 hr and replaced with fresh DMEM without serum, cells were treated for 15 min with TCAP, urocortin or vehicle±CRFR1 antagonist PD171729 in the continued presence of forskolin (1_M) and IBMX (100_M. Protein assays: Total protein was determined using the BCA protein assay method (Pierce Co). MTT Assays: Gn11 cells were seeded into 96-well plates and cultured in full serum DMEM until the cells were 30% confluent. Vehicle, 1 nM, 10 nM or 100 nM TCAP-1 were added into each group (n=8). (FIG. 25A) The MTT assay (Sigma Chemicals) was performed at 0, 6, 12, 24 and 48 hours. Flow Cytometry: DNA content of the Gn11 cells was quantified by staining with propridium iodide and analyzed on a FACSCAN flow cytometer (Beckman Instruments).

The test system of assay [2] is Gn11 cells. The experiment in a line: cGMP assay in Gn11 cells (Example 7, I). The following applies: 10^-6 M. As for the experimental part:
(§1) Medium and peptide was removed and the cells were lysed using 350 uL of a 0.1 M HCL 0.1% Triton X-100 solution. […] All reactions were done in triplicates. Wells were set up for blanks, non-specific binding, total activity (TA), zero binding, five standards, and 12 samples. […] The plate was allowed to shake overnight. The following morning, the wells were rinsed three times with a 10 times diluted wash buffer solution. 50 uL of conjugate was added to the TA wells and 200 uL of p-Npp substrate was added to each well. The plate was covered again and incubated at room temp for one hour. At this point, 50 uL of stop solution was added to all wells and the absorbance was read at 405 nm using a Spectramax spectrophotometer. Three levels of controls were utlized: A blank tube which provides a measure of any reactivity between p-Npp substrate and IgG coated wells.; TA: measure of activity of alkaline phosphotase in conjugate, if any; NSB: measure of binding of conjugate to plate or to antibody; Bo: measure of binding conjugate to antibody (no sample and conjugate competition).

The test system of assay [3] is Gn11 cells. Description: cAMP assay in Gn11 cells (Example 7, I). The conditions noted are these: 10^-6 M. As for the experimental part:
as §1

Regarding “mouse urocortin: CRF family peptide compared with mouse TCAP-1 in Gn11 cells (DDPPLSIDLTFHLLRTLLELARTQSQRERAEQNRIIFDSV; ends and bridges not checked) [reference compound]”, in assay [1], the “cAMP accumulation at 1 nM (in words)” value is reported as “increased cAMP accumulation”.

Consider “rat urocortin: CRF family peptide used for the purpose of a positive control (DDPPLSIDLTFHLLRTLLELARTQSQRERAEQNRIIFDSV; ends and bridges not checked; UniProt P55090 81-120, looked up) [reference compound]”, for which the “cGMP accumulation, % of the control cells” value in assay [2] is recorded as 50.0±8.5%. Besides, the “cGMP accumulation (in words)” value in assay [2] (FIG. 16B) is given as “significant (p<0.05) decrease”. In assay [3], the “cAMP accumulation, % of the vehicle-treated cells” value is 89.2±6.3%.
